Tested on: P388
Assay: Induction of apoptosis in P388D1 cell line
Assay type: functional, Mus musculus, DBA/2
Design: concentration or dose not given beside the values

SMILES	Activity [%]
CCCCCCCCCCCC(=O)N[C@H]1CCOC1=O	91.1
O=C(CCCCCCCCCO)CC(=O)N[C@H]1CCOC1=O	109.5
CCCCCCCCCC(=O)CC(=O)N[C@@H](C)C(=O)OC	111.2
CCCCCCCCCCCC(=O)CC(=O)N[C@H]1CCOC1=O	14.8
CCCCCCCC(=O)CC(=O)N[C@H]1CCOC1=O	107.7
O=C(O)CCC(=O)OCCCCCCCCCC(=O)CC(=O)N[C@H]1CCOC1=O	114
O=C(CCCCCCCc1ccccc1)CC(=O)N[C@H]1CCOC1=O	25.2
O=C(CCCCCCCCCc1ccccc1)CC(=O)N[C@H]1CCOC1=O	14.5
CCCCCCCCCC(=O)CC(=O)Nc1ccccc1O	109.6
O=C(CCCCCC1CC1)CC(=O)N[C@H]1CCOC1=O	122.9
CCCCCCCCCC(=O)CC(=O)N[C@H]1CCOC1=O	31.9
CCCCC(=O)N[C@H]1CCOC1=O	101.8
CCCCC(=O)CC(=O)N[C@H]1CCOC1=O	111
CCCCCCCCC(=O)CCC(=O)N[C@H]1CCOC1=O	115.6
O=C(CCCCCCCC1CC1)CC(=O)N[C@H]1CCOC1=O	38.7
CCCCCCCCCC(=O)CC(=O)N[C@@H]1CCOC1=O	105
CCCCCCCC(=O)CCCC(=O)N[C@H]1CCOC1=O	97.7
CCCC(=O)N[C@H]1CCOC1=O	100.4
CCCCCCCCCC(=O)CC(=O)N[C@H]1CCCC[C@@H]1O	96.2
O=C(CCCCCCCCCCCc1ccccc1)CC(=O)N[C@H]1CCOC1=O	12.2
O=C(CCCCCc1ccccc1)CC(=O)N[C@H]1CCOC1=O	122

— ChEMBL document CHEMBL1146944, “Synthesis of Pseudomonas quorum-sensing autoinducer analogs and structural entities required for induction of apoptosis in macrophages” (2006)
